Results from patent US20100267561A1, “HERBICIDAL PYRIDAZINONE DERIVATIVES” (priority 2007, published 2010).

Experiments:
Test in all cases: Test B pre-/postemergence plant response
Format in all cases: in vivo
wild oat (Avena fatua) = settings: for Oat, Wild plant response rating: 8 g ai/ha
Procedure, shortened: (§1)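 Seeds were sown and sprayed preemergence, while plants at 2 to 18 cm (1- to 4-leaf stage) got postemergence sprays. Compounds were formulated in a non-phytotoxic solvent mixture with surfactant. After 13 to 15 days in a greenhouse, injury was rated visually against untreated controls, 0 (no effect) to 100 (complete control).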

[1] = tested on: pigweed (Amaranthus retroflexus); settings: for Pigweed plant response rating: 8 g ai/ha
Procedure, shortened: as §1

[2] = tested on: blackgrass (Alopecurus myosuroides); settings: for Blackgrass plant response rating: 8 g ai/ha
Procedure, shortened: as §1

[3] = tested on: velvetleaf (Abutilon theophrasti); settings: for Velvetleaf plant response rating: 8 g ai/ha
Procedure, shortened: as §1

[4] = tested on: woolly cupgrass (Eriochloa villosa); settings: for Cupgrass, Woolly plant response rating: 8 g ai/ha
Procedure, shortened: as §1

[5] = tested on: common ragweed (Ambrosia elation); settings: for Ragweed plant response rating: 8 g ai/ha
Procedure, shortened: as §1

[6] = tested on: lambsquarters (Chenopodium album); settings: for Lambsquarters plant response rating: 8 g ai/ha
Procedure, shortened: as §1

[7] = tested on: giant foxtail (Setaria faberii); settings: for Foxtail, Giant plant response rating: 8 g ai/ha
Procedure, shortened: as §1

[8] = tested on: downy bromegrass (Bromus tectorum); settings: for Bromegrass, Downy plant response rating: 8 g ai/ha
Procedure, shortened: as §1

corn (Zea mays) = settings: for Corn plant response rating: 8 g ai/ha
Procedure, shortened: as §1

[9] = tested on: common (oilseed) sunflower (Helianthus annuus); settings: Preemergence
Procedure, shortened: as §1

[10] = tested on: yellow nutsedge (Cyperus esculentus); settings: for Nutsedge, Yellow plant response rating: 8 g ai/ha
Procedure, shortened: as §1

kochia (Kochia scoparia) = settings: for Kochia plant response rating: 8 g ai/ha
Procedure, shortened: as §1

[11] = tested on: catchweed bedstraw (Galium aparine); settings: Preemergence
Procedure, shortened: as §1

[12] = Postemergence, 16 g ai/ha, scale 0 to 100
[13] = Postemergence, 31 g ai/ha, scale 0 to 100, 0 no effect, 100 complete control
[14] = Postemergence, 62 g ai/ha, scale 0 to 100, 0 no effect, 100 complete control
[15] = Preemergence, 16 g ai/ha, scale 0 to 100 (0 no effect, 100 complete control)
[16] = Preemergence, 31 g ai/ha, 0 to 100 scale, 0 no effect, 100 complete control
[17] = Preemergence, 62 g ai/ha, scale 0 to 100
[18] = 16 g ai/ha, scale 0 to 100 (0 no effect, 100 complete control)
[19] = 31 g ai/ha, 0 to 100 scale, 0 no effect, 100 complete control

With `Cc1cc(-c2ccc(Cl)cc2)nn1-c1c(OC(=O)c2ccccc2Cl)cnn(C)c1=O` [Compound 38] the “Oat, Wild plant response rating” value (wild oat (Avena fatua); postemergence, 0-100 scale) was 80, the “Plant response rating, Oat, Wild” value (wild oat (Avena fatua); [12]) was 90 and the “Plant response rating, Oat, Wild” value (wild oat (Avena fatua); [13]) was 95. For the same compound, the “Plant response rating, Oat, Wild” value (wild oat (Avena fatua); [14]) was 100, the “Plant response rating, Oat, Wild” value (wild oat (Avena fatua); [15]) was 60 and the “Plant response rating, Oat, Wild” value (wild oat (Avena fatua); [16]) was 85. The “Plant response rating, Oat, Wild” value (wild oat (Avena fatua); [17]) was 90, the “Oat, Wild plant response rating” value (wild oat (Avena fatua); Preemergence, scale 0 to 100) was 0 and the “Pigweed plant response rating” value ([1]; postemergence, 0-100 scale) was 0. For the same compound, the “Plant response rating, Pigweed” value [1, 12] was 0, the “Plant response rating, Pigweed” value [1, 13] was 0 and the “Plant response rating, Pigweed” value [1, 14] was 0. The “Plant response rating, Pigweed” value [1, 15] was 0, the “Plant response rating, Pigweed” value [1, 16] was 0 and the “Plant response rating, Pigweed” value [1, 17] was 0. The “Pigweed plant response rating” value ([1]; Preemergence, scale 0 to 100) was 0, the “Blackgrass plant response rating” value ([2]; postemergence, 0-100 scale) was 0 and the “Plant response rating, Blackgrass” value [2, 12] was 40. The “Plant response rating, Blackgrass” value [2, 13] was 80, the “Plant response rating, Blackgrass” value [2, 14] was 98 and the “Plant response rating, Blackgrass” value [2, 16] was 90. For the same compound, the “Plant response rating, Blackgrass” value [2, 17] was 100, the “Blackgrass plant response rating” value ([2]; Preemergence, scale 0 to 100) was 90 and the “Velvetleaf plant response rating” value ([3]; postemergence, 0-100 scale) was 0. For the same compound, the “Plant response rating, Velvetleaf” value [3, 12] was 0, the “Plant response rating, Velvetleaf” value [3, 14] was 0 and the “Plant response rating, Velvetleaf” value [3, 15] was 0. The “Plant response rating, Velvetleaf” value [3, 16] was 0, the “Plant response rating, Velvetleaf” value [3, 17] was 0 and the “Velvetleaf plant response rating” value ([3]; Preemergence, scale 0 to 100) was 0. For the same compound, the “Cupgrass, Woolly plant response rating” value ([4]; postemergence, 0-100 scale) was 70, the “Plant response rating, Cupgrass, Woolly” value [4, 12] was 98 and the “Plant response rating, Cupgrass, Woolly” value [4, 13] was 100. For the same compound, the “Plant response rating, Cupgrass, Woolly” value [4, 14] was 100, the “Plant response rating, Cupgrass, Woolly” value [4, 15] was 50 and the “Plant response rating, Cupgrass, Woolly” value [4, 16] was 90. For the same compound, the “Plant response rating, Cupgrass, Woolly” value [4, 17] was 100, the “Cupgrass, Woolly plant response rating” value ([4]; Preemergence, scale 0 to 100) was 0 and the “Ragweed plant response rating” value ([5]; postemergence, 0-100 scale) was 0. The “Plant response rating, Ragweed” value [5, 12] was 0, the “Plant response rating, Ragweed” value [5, 13] was 0 and the “Plant response rating, Ragweed” value [5, 14] was 0. For the same compound, the “Plant response rating, Ragweed” value [5, 15] was 0, the “Plant response rating, Ragweed” value [5, 16] was 0 and the “Plant response rating, Ragweed” value [5, 17] was 0. The “Ragweed plant response rating” value ([5]; Preemergence, scale 0 to 100) was 0, the “Lambsquarters plant response rating” value ([6]; postemergence, 0-100 scale) was 0 and the “Plant response rating, Lambsquarters” value [6, 12] was 0. For the same compound, the “Plant response rating, Lambsquarters” value [6, 13] was 0, the “Plant response rating, Lambsquarters” value [6, 14] was 0 and the “Plant response rating, Lambsquarters” value [6, 15] was 0. The “Plant response rating, Lambsquarters” value [6, 16] was 0, the “Plant response rating, Lambsquarters” value [6, 17] was 0 and the “Lambsquarters plant response rating” value ([6]; Preemergence, scale 0 to 100) was 0. For the same compound, the “Foxtail, Giant plant response rating” value ([7]; postemergence, 0-100 scale) was 0, the “Plant response rating, Foxtail, Giant” value [7, 12] was 20 and the “Plant response rating, Foxtail, Giant” value [7, 13] was 50. The “Plant response rating, Foxtail, Giant” value [7, 14] was 100, the “Plant response rating, Foxtail, Giant” value [7, 15] was 98 and the “Plant response rating, Foxtail, Giant” value [7, 16] was 100. The “Plant response rating, Foxtail, Giant” value [7, 17] was 100, the “Foxtail, Giant plant response rating” value ([7]; Preemergence, scale 0 to 100) was 45 and the “Bromegrass, Downy plant response rating” value ([8]; postemergence, 0-100 scale) was 30. For the same compound, the “Plant response rating, Bromegrass, Downy” value [8, 12] was 45, the “Plant response rating, Bromegrass, Downy” value [8, 13] was 50 and the “Plant response rating, Bromegrass, Downy” value [8, 14] was 60. The “Plant response rating, Bromegrass, Downy” value [8, 15] was 55, the “Plant response rating, Bromegrass, Downy” value [8, 16] was 60 and the “Plant response rating, Bromegrass, Downy” value [8, 17] was 90. The “Bromegrass, Downy plant response rating” value ([8]; Preemergence, scale 0 to 100) was 55, the “Corn plant response rating” value (corn (Zea mays); postemergence, 0-100 scale) was 90 and the “Plant response rating, Corn” value (corn (Zea mays); [12]) was 95. The “Plant response rating, Corn” value (corn (Zea mays); [13]) was 100, the “Plant response rating, Corn” value (corn (Zea mays); [14]) was 100 and the “Plant response rating, Corn” value (corn (Zea mays); [15]) was 50. For the same compound, the “Plant response rating, Corn” value (corn (Zea mays); [16]) was 75, the “Plant response rating, Corn” value (corn (Zea mays); [17]) was 95 and the “Corn plant response rating” value (corn (Zea mays); Preemergence, scale 0 to 100) was 45. For the same compound, the “Plant response rating, Sunflower” value [9, 18] was 0, the “Plant response rating, Sunflower” value [9, 19] was 0 and the “Plant response rating, Sunflower” value ([9]; 62 g ai/ha, scale 0 to 100) was 0. The “Sunflower plant response rating” value ([9]; 8 g ai/ha, scale 0 to 100) was 0, the “Nutsedge, Yellow plant response rating” value ([10]; postemergence, 0-100 scale) was 0 and the “Plant response rating, Nutsedge, Yellow” value [10, 12] was 0. For the same compound, the “Plant response rating, Nutsedge, Yellow” value [10, 13] was 0, the “Plant response rating, Nutsedge, Yellow” value [10, 14] was 0 and the “Plant response rating, Nutsedge, Yellow” value [10, 15] was 0. The “Plant response rating, Nutsedge, Yellow” value [10, 16] was 0, the “Plant response rating, Nutsedge, Yellow” value [10, 17] was 0 and the “Nutsedge, Yellow plant response rating” value ([10]; Preemergence, scale 0 to 100) was 0. For the same compound, the “Kochia plant response rating” value (kochia (Kochia scoparia); postemergence, 0-100 scale) was 0, the “Plant response rating, Kochia” value (kochia (Kochia scoparia); [12]) was 0 and the “Plant response rating, Kochia” value (kochia (Kochia scoparia); [13]) was 0. The “Plant response rating, Kochia” value (kochia (Kochia scoparia); [14]) was 0, the “Plant response rating, Kochia” value (kochia (Kochia scoparia); [15]) was 0 and the “Kochia plant response rating” value (kochia (Kochia scoparia); Preemergence, scale 0 to 100) was 0. For the same compound, the “Plant response rating, Galium” value [11, 18] was 0, the “Plant response rating, Galium” value [11, 19] was 0 and the “Plant response rating, Galium” value ([11]; 62 g ai/ha, scale 0 to 100) was 0. The “Galium plant response rating” value ([11]; 8 g ai/ha, scale 0 to 100) was 0.
